For orientation: EC50 means the concentration at which the effect is half-maximal.

This note sets out measurements from patent US20250136606A1, “MODULATORS OF TRPML, THEIR COMPOSITIONS AND METHODS OF USE” (Caraway Therapeutics, Inc., priority 2021, published 2025).

What all share (format): cell-based
One experiment concerns the target T1, TRPML3 (Homo sapiens, UniProt Q8TDD5).
T1 construct: expressed in transfected cells
T1 sequence (Q8TDD5 1-553): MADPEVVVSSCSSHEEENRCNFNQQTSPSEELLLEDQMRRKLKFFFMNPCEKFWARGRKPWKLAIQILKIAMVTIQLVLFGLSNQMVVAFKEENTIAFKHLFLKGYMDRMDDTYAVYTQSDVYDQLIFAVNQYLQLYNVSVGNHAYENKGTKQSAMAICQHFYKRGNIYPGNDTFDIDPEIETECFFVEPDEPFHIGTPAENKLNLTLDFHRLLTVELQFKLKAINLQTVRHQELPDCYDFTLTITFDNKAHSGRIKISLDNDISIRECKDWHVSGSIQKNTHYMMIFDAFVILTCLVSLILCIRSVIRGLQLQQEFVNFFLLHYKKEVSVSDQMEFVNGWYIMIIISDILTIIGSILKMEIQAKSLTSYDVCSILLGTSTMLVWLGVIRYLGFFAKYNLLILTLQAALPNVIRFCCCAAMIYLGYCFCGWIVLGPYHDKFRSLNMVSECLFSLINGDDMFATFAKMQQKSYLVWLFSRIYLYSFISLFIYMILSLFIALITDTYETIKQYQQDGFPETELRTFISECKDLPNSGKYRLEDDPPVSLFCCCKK
The experiment in a line: Fluorescent TRPML3 assay (performed as for TRPML1, substituting the TRPML3 subtype). The procedure, abridged: (§1)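 HEK-293 Trex cells with doxycycline-induced (0.5 ug/mL) surface-directed human TRPML subtype, loaded with 1 μM Fluo4-AM, resuspended in Ringer's with 10 mM calcium. Compounds at 20 μM to 6 nM final in half-log steps, triplicate; fluorescence ex 480/em 540; EC50 by non-linear regression versus plate controls.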

The next experiment deals with T2, TRPML2 (Homo sapiens, UniProt Q8IZK6).
T2 construct: expressed in transfected cells
T2 sequence (Q8IZK6 1-566): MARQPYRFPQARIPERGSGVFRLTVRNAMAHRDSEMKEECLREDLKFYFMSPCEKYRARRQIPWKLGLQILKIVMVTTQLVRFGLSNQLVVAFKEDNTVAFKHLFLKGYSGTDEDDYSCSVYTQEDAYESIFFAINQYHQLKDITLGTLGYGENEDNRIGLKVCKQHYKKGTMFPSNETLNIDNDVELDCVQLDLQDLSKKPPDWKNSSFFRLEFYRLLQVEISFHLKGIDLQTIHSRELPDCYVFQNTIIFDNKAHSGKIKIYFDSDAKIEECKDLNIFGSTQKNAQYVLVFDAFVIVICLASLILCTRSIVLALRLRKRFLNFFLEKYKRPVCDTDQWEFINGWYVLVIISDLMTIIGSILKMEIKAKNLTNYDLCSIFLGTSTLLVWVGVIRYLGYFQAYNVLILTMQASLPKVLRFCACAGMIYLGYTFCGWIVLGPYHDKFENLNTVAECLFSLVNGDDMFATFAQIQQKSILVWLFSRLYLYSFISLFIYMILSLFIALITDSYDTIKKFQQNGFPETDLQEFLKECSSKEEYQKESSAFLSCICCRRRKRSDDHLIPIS
The experiment in a line: Fluorescent TRPML2 assay (performed as for TRPML1, substituting the TRPML2 subtype). The essentials: as §1

The target of a further experiment is TRPML1 (Homo sapiens, UniProt Q9GZU1). The experiment in a line: Fluorescent TRPML1 assay (Fluo4-AM calcium fluorescence in doxycycline-induced HEK-293 Trex cells). The procedure, abridged: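 HEK-293 Trex cells stably expressing surface-directed mutant human TRPML1, induced with 0.5 µg/mL doxycycline overnight, were loaded with 1 µM Fluo4-AM and added to compound (6 nM–20 µM final, half-log steps, triplicate) in Ringer's with 10 mM calcium. Fluorescence ex 480/em 540; EC50 by non-linear regression versus plate controls.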

Read-outs that look alike come from different tables or passages of the source.

Chain of TRPML1 (Q9GZU1 whole entry L15A/L16A/L577A/L578A, form open): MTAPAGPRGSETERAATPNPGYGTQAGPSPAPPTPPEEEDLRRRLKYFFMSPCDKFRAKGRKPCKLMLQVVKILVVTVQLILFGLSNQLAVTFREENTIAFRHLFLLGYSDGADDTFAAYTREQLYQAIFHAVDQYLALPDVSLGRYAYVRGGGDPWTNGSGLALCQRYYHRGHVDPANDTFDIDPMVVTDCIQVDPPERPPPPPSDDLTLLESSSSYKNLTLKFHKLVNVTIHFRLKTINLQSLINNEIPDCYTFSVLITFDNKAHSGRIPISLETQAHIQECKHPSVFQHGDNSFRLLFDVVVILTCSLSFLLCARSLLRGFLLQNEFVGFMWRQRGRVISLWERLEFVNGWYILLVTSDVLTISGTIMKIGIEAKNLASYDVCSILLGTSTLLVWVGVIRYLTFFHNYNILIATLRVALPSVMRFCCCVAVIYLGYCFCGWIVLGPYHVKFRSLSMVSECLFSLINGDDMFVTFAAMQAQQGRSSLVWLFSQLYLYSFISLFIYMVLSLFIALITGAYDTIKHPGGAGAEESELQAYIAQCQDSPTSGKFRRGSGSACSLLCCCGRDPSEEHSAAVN

For the molecule `C[C@H]1CN(C(=O)OC(C)(C)C)CCN1c1ncnc2c1c(N1CCCC1)cn2[C@H]1CCC[C@@H](C#N)C1` [Compound 529, tert-butyl (S)-4-(7-(cis-3-cyanocyclohexyl)-5-(pyrrolidin-1-yl)-7H-pyrrolo[2,3-d]pyrimidin-4-yl)-3-methylpiperazine-1-carboxylate], the EC50 at TRPML3 is 100 to 500 nM; on TRPML2, greater than 2000 nM; on TRPML1 it was 500 to 2000 nM.

With `C[C@@H]1CN(c2ncnc3c2c(CC(F)(F)F)cn3-c2nccc(C#N)n2)[C@@H](C)CN1C(=O)OC(C)(C)C` [Compound 617, tert-butyl (2R,5S)-4-(7-(4-cyanopyrimidin-2-yl)-5-(2,2,2-trifluoroethyl)-7H-pyrrolo[2,3-d]pyrimidin-4-yl)-2,5-dimethylpiperazine-1-carboxylate], the figures for the EC50 on TRPML3, at TRPML2 and at TRPML1 were 100 to 500 nM, greater than 2000 nM and less than 100 nM, respectively.

With `C[C@@H]1CN(c2ncnc3c2c(-c2ccccn2)cn3-c2cc(F)cc(F)c2)CCN1C(=O)OC(C)(C)C` [Compound 215, tert-butyl (R)-4-(7-(3,5-difluorophenyl)-5-(pyridin-2-yl)-7H-pyrrolo[2,3-d]pyrimidin-4-yl)-2-methylpiperazine-1-carboxylate], the values for the EC50 on TRPML3 (fluorescent calcium assay), at TRPML2 (fluorescent calcium assay) and on TRPML1 (fluorescent calcium assay) were 100 to 500 nM, 500 to 2000 nM and 100 to 500 nM, respectively.

For `C[C@@H]1CN(c2ncnc3c2c(C(C)(C)C)cn3-c2cc(C#N)ccn2)[C@@H](C)CN1C(=O)OC(C)(C)C` [Compound 525, tert-butyl (2R,5S)-4-(5-(tert-butyl)-7-(4-cyanopyridin-2-yl)-7H-pyrrolo[2,3-d]pyrimidin-4-yl)-2,5-dimethylpiperazine-1-carboxylate], the concentration giving a half-maximal response (EC50) on TRPML3, on TRPML2 and at TRPML1 was less than 100 nM each time.

With `C[C@H]1CN(C(=O)OC(C)(C)C)CCN1c1ncnc2c1c(C1CC1)cn2-c1ccc(F)c(OC(F)(F)F)c1` [Compound 387, tert-butyl (S)-4-(5-cyclopropyl-7-(4-fluoro-3-(trifluoromethoxy)phenyl)-7H-pyrrolo[2,3-d]pyrimidin-4-yl)-3-methylpiperazine-1-carboxylate], the concentration for a half-maximal effect (EC50) on TRPML3 (fluorescent calcium assay) was less than 100 nM; on TRPML2 (fluorescent calcium assay), 100 to 500 nM; on TRPML1 (fluorescent calcium assay) it was 500 to 2000 nM.

Consider `C[C@@H]1CN(c2ncnc3c2c(-c2ccccc2F)cn3-c2cncc(C#N)c2)[C@@H](C)CN1C(=O)OC(C)(C)C` [Compound 650, tert-butyl (2R,5S)-4-(7-(5-cyanopyridin-3-yl)-5-(2-fluorophenyl)-7H-pyrrolo[2,3-d]pyrimidin-4-yl)-2,5-dimethylpiperazine-1-carboxylate], for which the EC50 at TRPML3, at TRPML2 and at TRPML1 was less than 100 nM in each case.

In the case of `Cc1ccc(Cl)cc1-n1cc(-c2cnccn2)c2c(N3CCN(C(=O)OC(C)(C)C)CC3C)ncnc21` (stereo not drawn) [Compound 163, tert-butyl 4-(7-(5-chloro-2-methylphenyl)-5-(pyrazin-2-yl)-7H-pyrrolo[2,3-d]pyrimidin-4-yl)-3-methylpiperazine-1-carboxylate], the results for the EC50 on TRPML3 (fluorescent calcium assay), at TRPML2 (fluorescent calcium assay) and at TRPML1 (fluorescent calcium assay) were 100 to 500 nM, 500 to 2000 nM and 500 to 2000 nM, respectively.

For the molecule `Cc1cn(-c2cncc(F)c2)c2ncnc(N3C[C@@H](C)N(C(=O)OC(C)(C)C)C[C@@H]3C)c12` [Compound 672, tert-butyl (2R,5S)-4-(7-(5-fluoropyridin-3-yl)-5-methyl-7H-pyrrolo[2,3-d]pyrimidin-4-yl)-2,5-dimethylpiperazine-1-carboxylate], the EC50 was 100 to 500 nM at TRPML3, 500 to 2000 nM at TRPML2 and 100 to 500 nM at TRPML1.

Consider `C[C@H]1CN(C(=O)OC(C)(C)C)CCN1c1ncnc2c1c(C1CC1)cn2-c1cc(Cl)ccn1` [Compound 457, tert-butyl(S)-4-(7-(4-chloropyridin-2-yl)-5-cyclopropyl-7H-pyrrolo[2,3-d]pyrimidin-4-yl)-3-methylpiperazine-1-carboxylate], for which the EC50 at TRPML3 (fluorescent calcium assay), at TRPML2 (fluorescent calcium assay) and on TRPML1 (fluorescent calcium assay) was less than 100 nM throughout.

Regarding `C[C@H]1CN(C(=O)OC(C)(C)C)CCN1c1ncnc2c1c(N1CCC1)cn2-c1cc(F)cc(F)c1` [Compound 498, tert-butyl (S)-4-(5-(azetidin-1-yl)-7-(3,5-difluorophenyl)-7H-pyrrolo[2,3-d]pyrimidin-4-yl)-3-methylpiperazine-1-carboxylate], the EC50 at TRPML3, on TRPML2 and on TRPML1 was less than 100 nM throughout.

`C[C@H]1CN(C(=O)OC(C)(C)C)CCN1c1ncnc2c1c(C1CC1)cn2-c1cccc(OC(F)F)c1` [Compound 198, tert-butyl (S)-4-(5-cyclopropyl-7-(3-(difluoromethoxy)phenyl)-7H-pyrrolo[2,3-d]pyrimidin-4-yl)-3-methylpiperazine-1-carboxylate]: the EC50 on TRPML3 (fluorescent calcium assay) is less than 100 nM; on TRPML2 (fluorescent calcium assay) it was 100 to 500 nM; at TRPML1 (fluorescent calcium assay) it was less than 100 nM.

In the case of `C[C@H]1CN(C(=O)OC(C)(C)C)CCN1c1ncnc2c1c(-n1cccn1)cn2-c1cccc(Cl)c1` [Compound 322, tert-butyl (S)-4-(7-(3-chlorophenyl)-5-(1H-pyrazol-1-yl)-7H-pyrrolo[2,3-d]pyrimidin-4-yl)-3-methylpiperazine-1-carboxylate], the EC50 on TRPML3 (fluorescent calcium assay) was less than 100 nM; at TRPML2 (fluorescent calcium assay), 500 to 2000 nM; on TRPML1 (fluorescent calcium assay) it was 100 to 500 nM.

On to `C[C@@H]1CN(c2ncnc3c2c(C2CC2)cn3-c2cc(F)c(F)c(F)c2)CCN1C(=O)OC(C)(C)C` [Compound 204, tert-butyl (R)-4-(5-cyclopropyl-7-(3,4,5-trifluorophenyl)-7H-pyrrolo[2,3-d]pyrimidin-4-yl)-2-methylpiperazine-1-carboxylate], for which the results for the EC50 at TRPML3 (fluorescent calcium assay), at TRPML2 (fluorescent calcium assay) and on TRPML1 (fluorescent calcium assay) were less than 100 nM, 100 to 500 nM and less than 100 nM, respectively.

Consider `C[C@H]1CN(C(=O)OC(C)(C)C)CCN1c1ncnc2c1c(N1CCCC1)cn2C1CCCC1` [Compound 338, tert-butyl (S)-4-(7-cyclopentyl-5-(pyrrolidin-1-yl)-7H-pyrrolo[2,3-d]pyrimidin-4-yl)-3-methylpiperazine-1-carboxylate], for which the EC50 at TRPML3 (fluorescent calcium assay) is 500 to 2000 nM; at TRPML2 (fluorescent calcium assay), greater than 2000 nM; at TRPML1 (fluorescent calcium assay), 100 to 500 nM.

With `Cc1nccnc1-c1cn(-c2ccccc2)c2ncnc(N3C[C@@H](C)N(C(=O)OC(C)(C)C)C[C@@H]3C)c12` [Compound 182, tert-butyl (2R,5S)-2,5-dimethyl-4-(5-(3-methylpyrazin-2-yl)-7-phenyl-7H-pyrrolo[2,3-d]pyrimidin-4-yl)piperazine-1-carboxylate], the EC50 on TRPML3 (fluorescent calcium assay) was 500 to 2000 nM; at TRPML2 (fluorescent calcium assay) it was greater than 2000 nM; on TRPML1 (fluorescent calcium assay), 500 to 2000 nM.

Consider `C[C@@H]1CN(c2ncnc3c2c(C(F)(F)F)cn3-c2nccc(C#N)n2)[C@@H](C)CN1C(=O)OC(C)(C)C` [Compound 510, tert-butyl (2R,5S)-4-(7-(4-cyanopyrimidin-2-yl)-5-(trifluoromethyl)-7H-pyrrolo[2,3-d]pyrimidin-4-yl)-2,5-dimethylpiperazine-1-carboxylate], for which the EC50 on TRPML3 is less than 100 nM; at TRPML2 it was greater than 2000 nM; on TRPML1, 100 to 500 nM.

Take `CCc1cncc(-n2cc(C3CC3)c3c(N4CCN(C(=O)OC(C)(C)C)CC4)ncnc32)c1` [Compound 166, tert-butyl 4-(5-cyclopropyl-7-(5-ethylpyridin-3-yl)-7H-pyrrolo[2,3-d]pyrimidin-4-yl)piperazine-1-carboxylate]: the EC50 on TRPML3 (fluorescent calcium assay) lay in the range of 100 to 500 nM; at TRPML2 (fluorescent calcium assay) it was 500 to 2000 nM; at TRPML1 (fluorescent calcium assay) it was 100 to 500 nM.

Regarding `C[C@@H]1CN(c2ncnc3c2c(C(F)F)cn3C2CCCC(C#N)C2)[C@@H](C)CN1C(=O)OC(C)(C)C` (stereo partly drawn) [Compound 633, tert-butyl (2R,5S)-4-(7-(3-cyanocyclohexyl)-5-(difluoromethyl)-7H-pyrrolo[2,3-d]pyrimidin-4-yl)-2,5-dimethylpiperazine-1-carboxylate], the EC50 was 500 to 2000 nM on TRPML3, greater than 2000 nM on TRPML2 and 500 to 2000 nM at TRPML1.
